According to PubChem BioAssay AID1963861 (Molecular Pharmacology Branch, DTP, NCI, 2024):

System: 885724-159-R-J1-PDC KRAS PDC multicell spheroid viability
Assay: Anticancer human tumor 885724-159-R-J1-PDC patient-derived pancreatic adenocarcinoma cell line growth inhibition [KRAS2]
Details: for IC50: curve of first compound; for viability, T/C: stronger effect = lower value
Method in brief: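 Combination screen of spheroid viability in tumor-cell co-cultures with endothelial (HUVEC) and mesenchymal stem cell stroma. Each agent was tested in half-log dilutions, topping at clinical Cmax or at 10 microM without a known Cmax.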

[1] = second compound 0.1 µM, first compound 0.0316 µM
[2] = second compound 0.1 µM, first compound 0.1 µM
[3] = second compound 0.1 µM, first compound 0.316 µM
[4] = second compound 0.1 µM, first compound 1 µM
[5] = second compound 0.1 µM, first compound 3.16 µM
[6] = second compound 0.1 µM, first compound 10 µM
[7] = second compound 0.316 µM, first compound 0.0316 µM
[8] = second compound 0.316 µM, first compound 0.1 µM
[9] = second compound 0.316 µM, first compound 0.316 µM
[10] = second compound 0.316 µM, first compound 1 µM
[11] = second compound 0.316 µM, first compound 3.16 µM
[12] = second compound 0.316 µM, first compound 10 µM
[13] = second compound 1 µM, first compound 0.0316 µM
[14] = second compound 1 µM, first compound 0.1 µM
[15] = second compound 1 µM, first compound 0.316 µM
[16] = second compound 1 µM, first compound 1 µM
[17] = second compound 1 µM, first compound 3.16 µM
[18] = second compound 1 µM, first compound 10 µM
[19] = second compound 3.16 µM, first compound 0.0316 µM
[20] = second compound 3.16 µM, first compound 0.1 µM
[21] = second compound 3.16 µM, first compound 0.316 µM
[22] = second compound 3.16 µM, first compound 1 µM
[23] = second compound 3.16 µM, first compound 3.16 µM
[24] = second compound 3.16 µM, first compound 10 µM
[25] = second compound 10 µM, first compound 0.0316 µM
[26] = second compound 10 µM, first compound 0.1 µM
[27] = second compound 10 µM, first compound 0.316 µM
[28] = second compound 10 µM, first compound 1 µM
[29] = second compound 10 µM, first compound 3.16 µM
[30] = second compound 10 µM, first compound 10 µM
[31] = second compound 0.1 µM, first compound 0.000316 µM
[32] = second compound 0.1 µM, first compound 0.001 µM
[33] = second compound 0.1 µM, first compound 0.00316 µM
[34] = second compound 0.1 µM, first compound 0.01 µM
[35] = second compound 0.316 µM, first compound 0.000316 µM
[36] = second compound 0.316 µM, first compound 0.001 µM
[37] = second compound 0.316 µM, first compound 0.00316 µM
[38] = second compound 0.316 µM, first compound 0.01 µM
[39] = second compound 1 µM, first compound 0.000316 µM
[40] = second compound 1 µM, first compound 0.001 µM
[41] = second compound 1 µM, first compound 0.00316 µM
[42] = second compound 1 µM, first compound 0.01 µM
[43] = second compound 3.16 µM, first compound 0.000316 µM
[44] = second compound 3.16 µM, first compound 0.001 µM
[45] = second compound 3.16 µM, first compound 0.00316 µM
[46] = second compound 3.16 µM, first compound 0.01 µM
[47] = second compound 10 µM, first compound 0.000316 µM
[48] = second compound 10 µM, first compound 0.001 µM
[49] = second compound 10 µM, first compound 0.00316 µM
[50] = second compound 10 µM, first compound 0.01 µM
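Also: spheroids exposed to agents for 7 days before readout.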

Row | Compound | IC50 (second compound 0.1 µM) [nM] | IC50 (second compound 0.316 µM) [nM] | IC50 (second compound 1 µM) [nM] | IC50 (second compound 3.16 µM) [nM] | IC50 (second compound 10 µM) [nM] | viability, T/C [1] [%] | viability, T/C [2] [%] | viability, T/C [3] [%] | viability, T/C [4] [%] | viability, T/C [5] [%] | viability, T/C [6] [%] | viability, T/C [7] [%] | viability, T/C [8] [%] | viability, T/C [9] [%] | viability, T/C [13] [%] | viability, T/C [14] [%] | viability, T/C [19] [%] | viability, T/C [20] [%] | viability, T/C [25] [%] | viability, T/C [26] [%] | other results
1 | CC(C)NCC(C(=O)N1CCN(c2ncnc3c2C(C)CC3O)CC1)c1ccc(Cl)cc1 (stereo not given) + C=CC(=O)N1CCN(c2nc(=O)n(-c3c(C)ccnc3C(C)C)c3nc(-c4c(O)cccc4F)c(F)cc23)C(C)C1 | > 10000 | > 10000 | > 10000 | 3780 | 175 | 111 | 88 | 80.3 | 77.5 | 79.4 | 64.9 | 103 | 93.6 | 74.1 | 105 | 92.9 | 99.9 | 90.2 | 73.5 | 68.8 | viability, T/C [10]: 80.5%; viability, T/C [11]: 77.9%; viability, T/C [12]: 60.8%; viability, T/C [15]: 83.5%; viability, T/C [16]: 79.8%; viability, T/C [17]: 71.8%; viability, T/C [18]: 50.1%; viability, T/C [21]: 77.8%; viability, T/C [22]: 68.3%; viability, T/C [23]: 57.9%; viability, T/C [24]: 31.8%; viability, T/C [27]: 30%; viability, T/C [28]: 11.5%; viability, T/C [29]: 18.8%; viability, T/C [30]: 5.87%
2 | CC(C)n1nc(-c2ccc3oc(N)nc3c2)c2c(N)ncnc21 + C=CC(=O)N1CCN(c2nc(=O)n(-c3c(C)ccnc3C(C)C)c3nc(-c4c(O)cccc4F)c(F)cc23)C(C)C1 | 37 | 38 | 24 | 13.7 | 3.9 | 50.5 | 42.7 | – | – | – | – | 51.2 | 41.6 | – | 47.9 | 40.2 | 43.7 | 40.4 | 40.1 | 32.9 | viability, T/C [31]: 97.8%; viability, T/C [32]: 82.4%; viability, T/C [33]: 74.6%; viability, T/C [34]: 61%; viability, T/C [35]: 98.8%; viability, T/C [36]: 82.9%; viability, T/C [37]: 72.2%; viability, T/C [38]: 63.9%; viability, T/C [39]: 98.4%; viability, T/C [40]: 77.6%; viability, T/C [41]: 68.8%; viability, T/C [42]: 58.3%; viability, T/C [43]: 112%; viability, T/C [44]: 77.4%; viability, T/C [45]: 68.3%; viability, T/C [46]: 51.5%; viability, T/C [47]: 74.7%; viability, T/C [48]: 59%; viability, T/C [49]: 49.9%; viability, T/C [50]: 46.1%
3 | CC1(C)CCC(CN2CCN(c3ccc(C(=O)NS(=O)(=O)c4ccc(NCC5CCOCC5)c([N+](=O)[O-])c4)c(Oc4cnc5[nH]ccc5c4)c3)CC2)=C(c2ccc(Cl)cc2)C1 + C=CC(=O)N1CCN(c2nc(=O)n(-c3c(C)ccnc3C(C)C)c3nc(-c4c(O)cccc4F)c(F)cc23)C(C)C1 | 7090 | 7140 | 5360 | 9700 | 5480 | 111 | 118 | 114 | 108 | 91.2 | 32.3 | 117 | 114 | 111 | 122 | 117 | 109 | 120 | 91.1 | 68.7 | viability, T/C [10]: 114%; viability, T/C [11]: 89.3%; viability, T/C [12]: 33.8%; viability, T/C [15]: 118%; viability, T/C [16]: 112%; viability, T/C [17]: 72.8%; viability, T/C [18]: 23.1%; viability, T/C [21]: 113%; viability, T/C [22]: 114%; viability, T/C [23]: 80.8%; viability, T/C [24]: 49.2%; viability, T/C [27]: 76.9%; viability, T/C [28]: 77.8%; viability, T/C [29]: 65.3%; viability, T/C [30]: 33%
4 | Cn1ncnc1[C@H]1c2n[nH]c(=O)c3cc(F)cc(c23)N[C@@H]1c1ccc(F)cc1 + C=CC(=O)N1CCN(c2nc(=O)n(-c3c(C)ccnc3C(C)C)c3nc(-c4c(O)cccc4F)c(F)cc23)C(C)C1 | > 100 | > 100 | > 100 | > 100 | > 100 | 111 | 92 | – | – | – | – | 108 | 94 | – | 104 | 96.8 | 108 | 105 | 82.2 | 78.4 | viability, T/C [31]: 105%; viability, T/C [32]: 107%; viability, T/C [33]: 103%; viability, T/C [34]: 110%; viability, T/C [35]: 118%; viability, T/C [36]: 115%; viability, T/C [37]: 113%; viability, T/C [38]: 113%; viability, T/C [39]: 111%; viability, T/C [40]: 106%; viability, T/C [41]: 117%; viability, T/C [42]: 107%; viability, T/C [43]: 106%; viability, T/C [44]: 108%; viability, T/C [45]: 106%; viability, T/C [46]: 105%; viability, T/C [47]: 89.3%; viability, T/C [48]: 97.4%; viability, T/C [49]: 93%; viability, T/C [50]: 86%
